In patent publication US8957070B2, “Glucokinase activator compounds, methods of activating glucokinase and methods of treating diabetes and obesity” (Takeda Pharmaceutical Company Limited, priority 2005, dated 2015):

Columns and labels:
[1] = biological target: T1, GST-hLGK1 (human liver type GK) (Homo sapiens, UniProt P35557); experiment: Determination of GK activity value (Mant-ATP conversion, capillary electrophoresis); type: biochemical; details: concentration necessary for activating 50% of the maximum GK activity value, 37° C., 60 min, D-glucose added
T1 construct: with a BamHI site added to immediately before the initiation codon; made in house; host or cells: Escherichia coli BL21
T1 sequence (P35557 1-464 isoform P35557-3): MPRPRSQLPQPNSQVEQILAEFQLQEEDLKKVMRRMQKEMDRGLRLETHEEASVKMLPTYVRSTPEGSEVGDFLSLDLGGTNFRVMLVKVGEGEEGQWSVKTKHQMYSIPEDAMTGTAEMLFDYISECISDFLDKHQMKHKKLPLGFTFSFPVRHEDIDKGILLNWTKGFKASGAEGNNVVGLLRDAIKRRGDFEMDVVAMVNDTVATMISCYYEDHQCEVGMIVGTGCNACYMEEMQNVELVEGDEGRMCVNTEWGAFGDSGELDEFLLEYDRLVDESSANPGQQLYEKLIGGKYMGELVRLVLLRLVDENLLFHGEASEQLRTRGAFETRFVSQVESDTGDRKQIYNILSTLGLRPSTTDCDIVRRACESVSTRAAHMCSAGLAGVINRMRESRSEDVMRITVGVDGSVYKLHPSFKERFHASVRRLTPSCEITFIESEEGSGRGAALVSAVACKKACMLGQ
Experimental: A solution (5 μL) of test compound in 50% dimethyl sulfoxide was added to each well of 384 well black plate (Nalge Nunc International K.K.). Then, a solution (35 μL) obtained by diluting GST-hLGK1 obtained in Reference Example 2A with measurement buffer (containing 50 mM HEPES (pH 7.4), 200 mM KCl, 5 mM MgCl2, 2.5 mM DTT and 50 μM 2′-(or -3′)-O—(N-methylanthraniloyl)adenosine 5′-triphosphate (Mant-ATP) (Jena Bioscience GmbH)) to 6 μg/mL was added to each well.
Each well was stood at 37° C. for 10 min, and 25 mM D-glucose solution (10 μL) was added to start the reaction.
Each well after the reaction was stood at 37° C. for 60 min, and the reaction was quenched by adding 25 μL of a quenching solution (containing 200 mM HEPES (pH 7.4), 20 mM MgCl2, 200 mM EDTA, 0.03% Triton-X 100, 0.3% Coating 3 reagent (Caliper Life Sciences, Inc.)).
Mant-ATP (substrate) and Mant-ADP (reaction resultant product) were separated from each well after the reaction by a microchip type capillary electrophoresis apparatus 250 HTS (Caliper Life Sciences, Inc.). The reaction rate [(reaction resultant product peak height)/(reaction resultant product peak height+substrate peak height)×100(%)] was calculated from the ratio of the substrate peak height and reaction resultant product peak height obtained by fluorescence detection (excitation wavelength 355 nm, measurement wavelength 460 nm) and used as the index of GK activity.
As a control group, the reaction rate was calculated in the same manner as above except that “solution in 50% dimethyl sulfoxide” was used instead of “solution of test compound in 50% dimethyl sulfoxide”.
The percentage obtained by dividing the reaction rate of the well added with the test compound (test compound addition group) by the reaction rate of the well added with 50% solution in dimethyl sulfoxide alone (control group) was taken as the GK activity value of the test compound, and the concentration of the test compound necessary for activating 50% of the maximum value of the activity value is shown as EC50 value.

SMILES | melting point | EC50 [1]
CCOC(=O)c1cc2c(C)c(C)cc(N(CC)S(=O)(=O)c3cccs3)c2[nH]1 [Example 251, Ethyl 7-[ethyl(2-thienylsulfonyl)amino]-4,5-dimethyl-1H-indole-2-carboxylate] | 134 to 135 °C | –
CCOC(=O)c1[nH]c2c(NS(=O)(=O)c3cccs3)cccc2c1C [Example 23, Ethyl 3-methyl-7-[(2-thienylsulfonyl)amino]-1H-indole-2-carboxylate] | – | 2700 nM
CCN(c1ccc(C)c2cc(-c3ncc(C(C)O)s3)[nH]c12)S(=O)(=O)c1cccs1 (centres unmarked) [Example 249, N-Ethyl-N-{2-[5-(1-hydroxyethyl)-1,3-thiazol-2-yl]-4-methyl-1H-indol-7-yl}thiophene-2-sulfonamide] | 152 to 153 °C | –
CN(c1cccc2cc(-c3nccs3)[nH]c12)S(=O)(=O)c1nccn1C [Example 209, N,1-Dimethyl-N-[2-(1,3-thiazol-2-yl)-1H-indol-7-yl]-1H-imidazole-2-sulfonamide] | – | 510 nM
CN(c1cccc2cc(-c3ncc(CN4CCOCC4)s3)[nH]c12)S(=O)(=O)c1cccs1 [Example 146, N-Methyl-N-{2-[5-(morpholin-4-ylmethyl)-1,3-thiazol-2-yl]-1H-indol-7-yl}thiophene-2-sulfonamide] | – | 180 nM
CCN(c1cc(C)c(C)c2cc(-c3ncc(CO)s3)[nH]c12)S(=O)(=O)c1cccs1 [Example 254, N-Ethyl-N-{2-[5-(hydroxymethyl)-1,3-thiazol-2-yl]-4,5-dimethyl-1H-indol-7-yl}thiophene-2-sulfonamide] | 189 to 190 °C | –
O=S(=O)(Nc1cccc2cc(-c3nccs3)[nH]c12)c1cccs1 [Example 7, N-[2-(1,3-Thiazol-2-yl)-1H-indol-7-yl]thiophene-2-sulfonamide] | – | 240 nM
Cc1ccc(N(C)S(=O)(=O)c2cccs2)c2[nH]c(-c3nccs3)cc12 [Example 177, N-Methyl-N-[4-methyl-2-(1,3-thiazol-2-yl)-1H-indol-7-yl]thiophene-2-sulfonamide] | 159 to 160 °C | –
Cc1nc(-c2cc3cccc(N(C)S(=O)(=O)c4cccs4)c3[nH]2)cs1 [Example 173, N-Methyl-N-[2-(2-methyl-1,3-thiazol-4-yl)-1H-indol-7-yl]thiophene-2-sulfonamide] | 161 to 162 °C | –
CCCSc1ccc(NS(=O)(=O)c2cccs2)c2[nH]c(C(=O)OCC)cc12 [Example 65, Ethyl 4-(propylthio)-7-[(2-thienylsulfonyl)amino]-1H-indole-2-carboxylate] | – | 390 nM
CN(c1cc(OC(F)(F)F)cc2cc(C3=NCCS3)[nH]c12)S(=O)(=O)c1cccs1 [Example 169, N-[2-(4,5-dihydro-1,3-thiazol-2-yl)-5-(trifluoromethoxy)-1H-indol-7-yl]-N-methylthiophene-2-sulfonamide] | – | 22 nM
CN(c1cccc2cc(-c3ncc(CCC#N)s3)[nH]c12)S(=O)(=O)c1cccs1 [Example 151, N-{2-[5-(2-Cyanoethyl)-1,3-thiazol-2-yl]-1H-indol-7-yl}-N-methylthiophene-2-sulfonamide] | – | 80 nM
CCN(c1cccc2cc(-c3ncc(COc4ccc(C(=O)O)cc4)s3)[nH]c12)S(=O)(=O)c1cccs1 [Example 280, 4-[(2-{7-[ethyl(2-thienylsulfonyl)amino]-1H-indol-2-yl}-1,3-thiazol-5-yl)methoxy]benzoic acid] | – | 35 nM
O=S(=O)(Nc1cccc2cc(-c3ccccn3)[nH]c12)c1cccs1 [Example 8, N-[2-(Pyridin-2-yl)-1H-indol-7-yl]thiophene-2-sulfonamide] | – | 1500 nM
CCOC(=O)c1cc2c(C)ccc(N(CC)S(=O)(=O)c3cccs3)c2[nH]1 [Example 246, Ethyl 7-[ethyl(2-thienylsulfonyl)amino]-4-methyl-1H-indole-2-carboxylate] | 148 to 149 °C | –
Cc1ccc(N(C)S(=O)(=O)c2cccs2)c2[nH]c(C(=O)O)cc12 [Example 175, 4-Methyl-7-[methyl (2-thienylsulfonyl)amino]-1H-indole-2-carboxylic acid] | 223 to 225 °C | –

SMILES | melting point | EC50 [1]
O=S(=O)(Nc1cccc2cc(-c3ncon3)[nH]c12)c1cccs1 [Example 17, N-[2-(1,2,4-Oxadiazol-3-yl)-1H-indol-7-yl]thiophene-2-sulfonamide] | – | 4800 nM
O=S(=O)(Nc1cccc2cc(C3=NCCO3)[nH]c12)c1cccs1 [Example 5, N-[2-(4,5-Dihydro-1,3-oxazol-2-yl)-1H-indol-7-yl]thiophene-2-sulfonamide] | – | 1200 nM
Cc1ccc(N(C)S(=O)(=O)c2cccs2)c2[nH]c(-c3ncc(CO)s3)cc12 [Example 245, N-{2-[5-(Hydroxymethyl)-1,3-thiazol-2-yl]-4-methyl-1H-indol-7-yl}-N-methylthiophene-2-sulfonamide] | 184 to 185 °C | –
CN(c1cc(OC(F)(F)F)cc2cc(C(=O)O)[nH]c12)S(=O)(=O)c1cccs1 [Example 167, 7-[Methyl(2-thienylsulfonyl)amino]-5-(trifluoromethoxy)-1H-indole-2-carboxylic acid] | 245 to 246 °C | –
CNc1nc(-c2cc3cccc(N(C)S(=O)(=O)c4cccs4)c3[nH]2)cs1 [Example 174, N-Methyl-N-{2-[2-(methylamino)-1,3-thiazol-4-yl]-1H-indol-7-yl}thiophene-2-sulfonamide] | 162 to 163 °C | –
CN(c1ccc(Cl)c2cc(-c3ncc(CO)s3)[nH]c12)S(=O)(=O)c1cccs1 [Example 261, N-{4-chloro-2-[5-(hydroxymethyl)-1,3-thiazol-2-yl]-1H-indol-7-yl}-N-methylthiophene-2-sulfonamide] | – | 19 nM
Cc1c(C2=NCCS2)[nH]c2c(NS(=O)(=O)c3cccs3)cccc12 [Example 26, N-[2-(4,5-Dihydro-1,3-thiazol-2-yl)-3-methyl-1H-indol-7-yl]thiophene-2-sulfonamide] | – | 1700 nM
CCN(c1ccc(C)c2cc(-c3ncc(CO)s3)[nH]c12)S(=O)(=O)c1cccs1 [Example 250, N-Ethyl-N-{2-[5-(hydroxymethyl)-1,3-thiazol-2-yl]-4-methyl-1H-indol-7-yl}thiophene-2-sulfonamide] | 166 to 167 °C | –
CN(c1cccc2cc(C3=NCCS3)[nH]c12)S(=O)(=O)c1cccs1 [Example 86, N-[2-(4,5-Dihydro-1,3-thiazol-2-yl)-1H-indol-7-yl]-N-methylthiophene-2-sulfonamide] | – | 27 nM
O=S(=O)(Nc1cccc2cc(C3=NCCS3)[nH]c12)c1cccs1 [Example 3, N-[2-(4,5-dihydro-1,3-thiazol-2-yl)-1H-indol-7-yl]thiophene-2-sulfonamide] | – | 110 nM
CCOC(=O)Cc1cnc(-c2cc3cccc(N(C)S(=O)(=O)c4cccs4)c3[nH]2)s1 [Example 137, Ethyl (2-{7-[methyl(2-thienylsulfonyl)amino]-1H-indol-2-yl}-1,3-thiazol-5-yl)acetate] | – | 48 nM
CN(c1cccc2cc(-c3nccs3)[nH]c12)S(=O)(=O)c1cccs1 [Example 97, N-Methyl-N-[2-(1,3-thiazol-2-yl)-1H-indol-7-yl]thiophene-2-sulfonamide] | – | 77 nM
O=C1CCCc2c1[nH]c1c(NS(=O)(=O)c3cccs3)cccc21 [Example 11, N-(1-Oxo-2,3,4,9-tetrahydro-1H-carbazol-8-yl) thiophene-2-sulfonamide] | – | 1400 nM
CN(c1cc(F)cc2cc(C3=NCCS3)[nH]c12)S(=O)(=O)c1cccs1 [Example 165, N-[2-(4,5-dihydro-1,3-thiazol-2-yl)-5-fluoro-1H-indol-7-yl]-N-methylthiophene-2-sulfonamide] | – | 28 nM
CCN(c1cccc2cc(C3=NCCS3)[nH]c12)S(=O)(=O)c1cccs1 [Example 104, N-[2-(4,5-Dihydro-1,3-thiazol-2-yl)-1H-indol-7-yl]-N-ethylthiophene-2-sulfonamide] | – | 34 nM
Cc1cc(NS(=O)(=O)c2cccs2)c2[nH]c3c(c2c1)CCNC3=O [Example 52, N-(6-Methyl-1-oxo-2,3,4,9-tetrahydro-1H-β-carbolin-8-yl)thiophene-2-sulfonamide] | – | 2000 nM
